This note sets out measurements from patent US20140107109A1, “AMINO-DIHYDROTHIAZINE AND AMINO-DIOXIDO DIHYDROTHIAZINE COMPOUNDS AS BETA-SECRETASE ANTAGONISTS AND METHODS OF USE” (Amgen Inc., priority 2012, published 2014).

The target in assay [1] is Beta Secretase enzyme (BACE1) (Homo sapiens, UniProt P56817). Nature of the assay: In vitro enzymatic BACE FRET assay. It counts as biochemical. The procedure, abridged:
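BACE1 cleavage of a 50 nM fluorophore/quencher peptide FRET substrate ran for one hour in 0.05 M acetate pH 4.2, 10% DMSO, 100 uM genapol. Tris buffer raised pH to neutrality to stop the reaction before fluorescence was read (excitation 488 nm, […]).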

Assay [2] concerns Aβ40 in conditioned medium of cells stably expressing Amyloid Precursor Protein (APP). Nature of the assay: In vitro BACE cell-based assay (HEK cell assay), Aβ40 sandwich ELISA. The following applies: Homo sapiens, HEK293. The procedure, abridged:
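APP-stably expressing cells (40K/well, grown 24 h in DMEM/10% FBS) were treated 24 h with compounds in 10-point dose response starting at 100 μM or 10 μM, 0.1% DMSO final. Secreted Aβ40 was measured by sandwich ELISA (pAb40 capture, biotinylated 6E10 detection, europium time-resolved fluorescence); IC50 from percent inhibition.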
A general note: ELISA stands for enzyme-linked immunosorbent assay.

The target of another assay is T1, Cathepsin D (Cat D) (Homo sapiens, UniProt P07339).
T1 construct: Recombinant Cat D was expressed in CHO cells; made in house; host or cells: CHO cells
T1 sequence (P07339 65-412, species assumed): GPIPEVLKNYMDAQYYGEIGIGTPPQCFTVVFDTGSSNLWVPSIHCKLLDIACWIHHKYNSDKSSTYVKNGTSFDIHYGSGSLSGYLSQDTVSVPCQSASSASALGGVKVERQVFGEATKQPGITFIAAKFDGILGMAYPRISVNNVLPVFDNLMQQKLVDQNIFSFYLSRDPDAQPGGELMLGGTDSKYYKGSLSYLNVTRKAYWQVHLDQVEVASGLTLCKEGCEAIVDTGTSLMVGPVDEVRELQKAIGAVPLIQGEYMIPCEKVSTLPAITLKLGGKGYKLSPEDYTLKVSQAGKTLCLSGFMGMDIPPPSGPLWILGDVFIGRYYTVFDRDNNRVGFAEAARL
Nature of the assay: In vitro enzymatic Cathepsin D (Cat D) FRET assay. The format is biochemical. The following applies: read-out: CatD IC50. The essentials:
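Recombinant Cat D expressed in CHO cells, used at 9 nM and pre-incubated one hour with serially diluted inhibitor in DMSO. Peptide substrate carries a fluorophore and quencher flanking the cleavage site; reaction stopped with Tris buffer raising pH to neutrality, then fluorescence read.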

The mark [3] stands for this setting: average IC50, enzyme assay, read-out: BACE1 FRET assay IC50.
Where [4] appears, read: read-out: BACE1 FRET assay IC50.

The structures appear in SMILES notation. Like-named read-outs stand apart in the source and are kept apart here. A value given as a limit tells only on which side of the number the result lay.

Sequence of Beta Secretase enzyme (BACE1) (P56817 46-501): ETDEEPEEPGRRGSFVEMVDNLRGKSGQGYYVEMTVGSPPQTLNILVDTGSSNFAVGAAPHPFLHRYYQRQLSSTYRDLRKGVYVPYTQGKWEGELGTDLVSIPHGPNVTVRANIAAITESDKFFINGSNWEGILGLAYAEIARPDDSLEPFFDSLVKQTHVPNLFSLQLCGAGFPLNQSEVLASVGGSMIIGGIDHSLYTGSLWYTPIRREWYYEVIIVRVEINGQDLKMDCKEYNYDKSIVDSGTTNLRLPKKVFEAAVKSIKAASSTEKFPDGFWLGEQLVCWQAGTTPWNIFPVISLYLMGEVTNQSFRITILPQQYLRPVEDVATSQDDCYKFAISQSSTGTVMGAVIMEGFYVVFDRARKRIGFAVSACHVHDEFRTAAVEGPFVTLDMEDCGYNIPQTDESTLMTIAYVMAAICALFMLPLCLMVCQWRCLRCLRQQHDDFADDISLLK

Usually IC50 stands for the midpoint of a concentration-inhibition curve. On to `Cc1cc(OC2COC2)cnc1C(=O)Nc1ccc(F)c([C@]2(CF)CS(=O)(=O)C(C)(C)C(N)=N2)c1` [Example 150, (S)—N-(3-(5-amino-3-(fluoromethyl)-6,6-dimethyl-1,1-dioxido-3,6-dihydro-2H-1,4-thiazin-3-yl)-4-fluorophenyl)-3-methyl-5-(oxetan-3-yloxy)picolinamide], for which the half-maximal inhibitory concentration (IC50) in assay [1] (setting [3]) was 0.0445 µM; in assay [2] (average IC50, cell assay), 0.528 µM; on Cathepsin D (Cat D), 622 µM.
On to `Cc1cc(OCC2CCC2)cnc1C(=O)Nc1ccc(F)c([C@]2(CF)CS(=O)(=O)C(C)(C)C(N)=N2)c1` [Example 151, (S)—N-(3-(5-amino-3-(fluoromethyl)-6,6-dimethyl-1,1-dioxido-3,6-dihydro-2H-1,4-thiazin-3-yl)-4-fluorophenyl)-5-(cyclobutylmethoxy)-3-methylpicolinamide], for which the IC50 in assay [1] (setting [4]) amounted to 0.0017 µM; in assay [2] it was 0.1 µM; on Cathepsin D (Cat D), 232 µM.
As to `Cc1c(CNc2ccc(F)c([C@]3(C)CS(=O)(=O)C(C)(C)C(N)=N3)c2)nc2ccc(Cl)cn12` [Example 152, (R)-5-amino-3-(5-(((6-chloro-3-methylimidazo[1,2-a]pyridin-2-yl)methyl)amino)-2-fluorophenyl)-3,6,6-trimethyl-3,6-dihydro-2H-1,4-thiazine 1,1-dioxide], the IC50 in assay [1] (setting [3]) turned out to be 2.94 µM; in assay [2] (average IC50, cell assay), 0.302 µM; on Cathepsin D (Cat D), 1460 µM.
Take `CC1(C)C(N)=N[C@](C)(c2cc(C(=O)Nc3ccc(Cl)cc3)ccc2F)CS1(=O)=O` [Example 153, (R)-3-(5-amino-3,6,6-trimethyl-1,1-dioxido-3,6-dihydro-2H-1,4-thiazin-3-yl)-N-(4-chlorophenyl)-4-fluorobenzamide]: the IC50 in assay [1] (setting [3]) was determined as 4.68 µM; in assay [2] (average IC50, cell assay) it was 3.21 µM; on Cathepsin D (Cat D), 237 µM.
For `C[C@@]1(c2cccc(Br)c2)CS(=O)(=O)C2(CCC2)C(N)=N1` [Example 154, (R)-9-amino-7-(3-bromophenyl)-7-methyl-5-thia-8-azaspiro[3.5]non-8-ene 5,5-dioxide] the same measures were 6.06 µM, 2.39 µM and 31.2 µM.
Take `COc1cnc(C(=O)Nc2ccc(F)c([C@]3(CF)CS(=O)(=O)C(C)(C)C(N)=N3)c2)c(OC)n1` [Example 155, (S)—N-(3-(5-amino-3-(fluoromethyl)-6,6-dimethyl-1,1-dioxido-3,6-dihydro-2H-1,4-thiazin-3-yl)-4-fluorophenyl)-3,5-dimethoxypyrazine-2-carboxamide]: the 50% inhibitory concentration (IC50) worked out at 0.0043 µM in assay [1] (setting [3]); 0.0351 µM in assay [2] (average IC50, cell assay); 470 µM on Cathepsin D (Cat D).
With `CC1(C)C(N)=N[C@](CF)(c2cc(NC(=O)c3cnc(OCC4CC4)cn3)ccc2F)CS1(=O)=O` [Example 156, (S)—N-(3-(5-amino-3-(fluoromethyl)-6,6-dimethyl-1,1-dioxido-3,6-dihydro-2H-1,4-thiazin-3-yl)-4-fluorophenyl)-5-(cyclopropylmethoxy)pyrazine-2-carboxamide], the concentration for half-maximal inhibition (IC50) in assay [1] (setting [3]) was determined as 0.0005 µM; in assay [2] (average IC50, cell assay), 0.0049 µM; on Cathepsin D (Cat D), 835 µM.
In the case of `CC1(C)C(N)=N[C@](CF)(c2cc(Nc3ncc(F)c4cc(C#N)cnc34)ccc2F)CS1(=O)=O` [Example 157, (S)-8-((3-(5-amino-3-(fluoromethyl)-6,6-dimethyl-1,1-dioxido-3,6-dihydro-2H-1,4-thiazin-3-yl)-4-fluorophenyl)amino)-5-fluoro-1,7-naphthyridine-3-carbonitrile], the IC50 in assay [1] (setting [3]) is 0.00056 µM; in assay [2] (average IC50, cell assay) it was 0.0271 µM; on Cathepsin D (Cat D), more than 14.8 µM.
For `Cc1c(C(=O)Nc2ccc(F)c([C@]3(CF)CS(=O)(=O)C(C)(C)C(N)=N3)c2)nc2ccc(Cl)cn12` [Example 158, (S)—N-(3-(5-amino-3-(fluoromethyl)-6,6-dimethyl-1,1-dioxido-3,6-dihydro-2H-1,4-thiazin-3-yl)-4-fluorophenyl)-6-chloro-3-methylimidazo[1,2-a]pyridine-2-carboxamide] the same measures were 0.00303 µM, 0.0106 µM and 4060 µM.
On to `COc1cnc2c(Nc3ccc(F)c([C@]4(CF)CS(=O)(=O)C(C)(C)C(N)=N4)c3)ncc(F)c2c1` [Example 159, (S)-5-amino-3-(2-fluoro-5-((5-fluoro-3-methoxy-1,7-naphthyridin-8-yl)amino)phenyl)-3-(fluoromethyl)-6,6-dimethyl-3,6-dihydro-2H-1,4-thiazine 1,1-dioxide], for which the IC50 is 0.00055 µM in assay [1] (setting [3]); 0.0285 µM in assay [2] (average IC50, cell assay); 159 µM at Cathepsin D (Cat D).
For the compound `CC1(C)C(N)=N[C@](C)(c2cc(NC(=O)N3CC=CCC3)ccc2F)CS1(=O)=O` [Example 160, (R)—N-(3-(5-amino-3,6,6-trimethyl-1,1-dioxido-3,6-dihydro-2H-1,4-thiazin-3-yl)-4-fluorophenyl)-5,6-dihydropyridine-1(2H)-carboxamide], the half-inhibitory concentration (IC50) in assay [1] (setting [3]) was 0.575 µM; in assay [2] (average IC50, cell assay), 0.681 µM; at Cathepsin D (Cat D) it was more than 14.8 µM.
As to `CC1(C)C(N)=N[C@](C)(c2cc(Nc3nccc4cc(OCC(F)F)cnc34)ccc2F)CS1(=O)=O` [Example 161, (R)-5-amino-3-(5-((3-(2,2-difluoroethoxy)-1,7-naphthyridin-8-yl)amino)-2-fluorophenyl)-3,6,6-trimethyl-3,6-dihydro-2H-1,4-thiazine 1,1-dioxide], the half-inhibitory concentration (IC50) worked out at 0.0143 µM in assay [1] (setting [3]); 0.0178 µM in assay [2] (average IC50, cell assay); 447 µM on Cathepsin D (Cat D).
For `CC1(C)C(N)=N[C@](C)(c2cc(Nc3nncc4cc(C#N)cnc34)ccc2F)CS1(=O)=O` [Example 162, (R)-8-((3-(5-amino-3,6,6-trimethyl-1,1-dioxido-3,6-dihydro-2H-1,4-thiazin-3-yl)-4-fluorophenyl)amino)pyrido[2,3-d]pyridazine-3-carbonitrile], the IC50 was determined as 0.0023 µM in assay [1] (setting [3]); 0.0015 µM in assay [2] (average IC50, cell assay); 418 µM on Cathepsin D (Cat D).
On to `CC1(C)C(N)=N[C@](C)(c2cc(Sc3ccccn3)ccc2F)CS1(=O)=O` [Example 163, (R)-5-amino-3-(2-fluoro-5-(pyridin-2-ylthio)phenyl)-3,6,6-trimethyl-3,6-dihydro-2H-1,4-thiazine 1,1-dioxide], for which the concentration for half-maximal inhibition (IC50) in assay [1] (setting [3]) turned out to be 3.25 µM; in assay [2] (average IC50, cell assay), 2.36 µM; at Cathepsin D (Cat D), 73.5 µM.
In the case of `CC1(C)C(N)=N[C@](C)(c2cc(N)ccc2F)[C@@H](F)S1(=O)=O` [Example 164, (2S,3R)-5-amino-3-(5-amino-2-fluorophenyl)-2-fluoro-3,6,6-trimethyl-3,6-dihydro-2H-1,4-thiazine 1,1-dioxide], the concentration for half-maximal inhibition (IC50) in assay [1] (setting [3]) amounted to 3.72 µM; in assay [2] (average IC50, cell assay) it was 3.03 µM; on Cathepsin D (Cat D), 190 µM.
As for `CC1(C)C(N)=N[C@](C)(c2cc(Nc3c(Cl)sc4cc(C#N)cnc34)ccc2F)CS1(=O)=O` [Example 167, (R)-3-((3-(5-amino-3,6,6-trimethyl-1,1-dioxido-3,6-dihydro-2H-1,4-thiazin-3-yl)-4-fluorophenyl)-amino)-2-chlorothieno[3,2-b]pyridine-6-carbonitrile], the concentration for half-maximal inhibition (IC50) in assay [1] (setting [4]) stood at 0.0139 µM; in assay [2] it was 1.44 µM; on Cathepsin D (Cat D), 11.8 µM.
With `CC1(C)C(N)=N[C@](C)(c2cc(Nc3nccc4cc(Cl)cnc34)ccc2F)[C@@H](F)S1(=O)=O` [Example 168, (2S,3R)-5-amino-3-(5-((3-chloro-1,7-naphthyridin-8-yl)amino)-2-fluorophenyl)-2-fluoro-3,6,6-trimethyl-3,6-dihydro-2H-1,4-thiazine 1,1-dioxide], the IC50 in assay [1] (setting [3]) was 0.00092 µM; in assay [2] (average IC50, cell assay), 0.0167 µM; at Cathepsin D (Cat D), 66.8 µM.
In the case of `CC1(C)C(N)=N[C@](C)(c2cc(Br)c[nH]c2=O)CS1(=O)=O` [Example 169, (R)-3-(5-amino-3,6,6-trimethyl-1,1-dioxido-3,6-dihydro-2H-1,4-thiazin-3-yl)-5-bromopyridin-2(1H)-one], the half-maximal inhibitory concentration (IC50) in assay [1] is 21.1 µM; in assay [2] (average IC50, cell assay), more than 15.6 µM; on Cathepsin D (Cat D), more than 400 µM.
With `COc1ncc(NC(=O)c2ccc(Cl)cn2)cc1[C@]1(C)CS(=O)(=O)C(C)(C)C(N)=N1` [Example 170, (R)—N-(5-(5-amino-3,6,6-trimethyl-1,1-dioxido-3,6-dihydro-2H-1,4-thiazin-3-yl)-6-methoxypyridin-3-yl)-5-chloropicolinamide], the IC50 in assay [1] (setting [3]) was 0.0225 µM; in assay [2] (average IC50, cell assay), 0.0289 µM; on Cathepsin D (Cat D) it was 305 µM.
Turning to `Cc1cc(OC(F)F)cnc1C(=O)Nc1cc([C@]2(C)CS(=O)(=O)C(C)(C)C(N)=N2)c(=O)n(C)c1` [Example 171, (R)—N-(5-(5-amino-3,6,6-trimethyl-1,1-dioxido-3,6-dihydro-2H-1,4-thiazin-3-yl)-1-methyl-6-oxo-1,6-dihydropyridin-3-yl)-5-(difluoromethoxy)-3-methylpicolinamide], the IC50 in assay [1] (setting [3]) worked out at 0.00927 µM; in assay [2] (average IC50, cell assay), 0.0083 µM; on Cathepsin D (Cat D), 186 µM.
With `NC1=N[C@](CF)(c2cc(Br)ccc2F)CS(=O)(=O)C12CCC2` [Example 172, (S)-9-amino-7-(5-bromo-2-fluorophenyl)-7-(fluoromethyl)-5-thia-8-azaspiro[3.5]non-8-ene 5,5-dioxide], the concentration for half-maximal inhibition (IC50) is 3.56 µM in assay [1] (average IC50, read-out: BACE1 FRET assay IC50); more than 15.6 µM in assay [2] (average IC50, HEK cells); 45.4 µM on Cathepsin D (Cat D).
